Data taken from ChEMBL document CHEMBL1136403, “Synthesis and biological evaluation of some novel 4'-thio-L-ribonucleosides with modified nucleobase moieties” (Bioorg Med Chem Lett, 2003).

These compounds were tested on HeLa (assay: In vitro cytotoxicity against HeLa human cervical carcinoma cell line). Conditions: not given.
Type: functional, cell-based
For `Cc1cn([C@H]2S[C@@H](CO)[C@H](O)[C@@H]2O)c(=O)[nH]c1=O`, the IC50 was 100 µM.
In the case of `Nc1nc(S)c2ncn([C@H]3S[C@@H](CO)[C@H](O)[C@@H]3O)c2n1`, the IC50 is reported as > 100 µM.
In the case of `O=c1[nH]c(=O)n([C@H]2S[C@@H](CO)[C@H](O)[C@@H]2O)cc1F`, the IC50 is reported as > 100 µM.
Work on `Nc1nc(=O)n([C@H]2S[C@@H](CO)[C@H](O)[C@@H]2O)cc1F` yielded an IC50 of 95.9 µM.

These compounds were tested on NHDF (assay: In vitro cytotoxicity against normal human dermal fibroblast (NHDF) cell line). Conditions: not given.
Type: functional, cell-based
`Cc1cn([C@H]2S[C@@H](CO)[C@H](O)[C@@H]2O)c(=O)[nH]c1=O` was tested, and the IC50 was > 100 µM.
For `Nc1nc(S)c2ncn([C@H]3S[C@@H](CO)[C@H](O)[C@@H]3O)c2n1`, the IC50 was > 100 µM.
`O=c1[nH]c(=O)n([C@H]2S[C@@H](CO)[C@H](O)[C@@H]2O)cc1F` was tested, and the IC50 was > 100 µM.
In the case of `Nc1nc(=O)n([C@H]2S[C@@H](CO)[C@H](O)[C@@H]2O)cc1F`, the IC50 is reported as > 100 µM.

These compounds were tested on T47D (assay: In vitro cytotoxicity against T47D breast cancer cell line). Conditions: Homo sapiens.
Type: functional, cell-based
With `Cc1cn([C@H]2S[C@@H](CO)[C@H](O)[C@@H]2O)c(=O)[nH]c1=O` the IC50 was > 100 µM.
With `O=c1[nH]c(=O)n([C@H]2S[C@@H](CO)[C@H](O)[C@@H]2O)cc1F` the IC50 was > 100 µM.

The compounds below were run on C6 (assay: In vitro cytotoxicity against C6 rat glioma cell line). Conditions: not given.
Type: functional, cell-based
In the case of `Cc1cn([C@H]2S[C@@H](CO)[C@H](O)[C@@H]2O)c(=O)[nH]c1=O`, the IC50 is reported as > 100 µM.
With `Nc1nc(S)c2ncn([C@H]3S[C@@H](CO)[C@H](O)[C@@H]3O)c2n1` the IC50 was > 100 µM.
For `O=c1[nH]c(=O)n([C@H]2S[C@@H](CO)[C@H](O)[C@@H]2O)cc1F`, the IC50 was > 100 µM.
For `Nc1nc(=O)n([C@H]2S[C@@H](CO)[C@H](O)[C@@H]2O)cc1F`, the IC50 was > 100 µM.

These compounds were tested on NB-4 (assay: In vitro cytotoxicity against NB4 leukemia cell line). Conditions: Homo sapiens.
Type: functional, cell-based
With `Cc1cn([C@H]2S[C@@H](CO)[C@H](O)[C@@H]2O)c(=O)[nH]c1=O` the IC50 was > 100 µM.
For `Nc1nc(S)c2ncn([C@H]3S[C@@H](CO)[C@H](O)[C@@H]3O)c2n1`, the IC50 was > 100 µM.
`O=c1[nH]c(=O)n([C@H]2S[C@@H](CO)[C@H](O)[C@@H]2O)cc1F` was tested, and the IC50 was > 100 µM.

The compounds below were run on U-87 MG (assay: In vitro cytotoxicity against HTB14 human glioma cell line). Conditions: not given.
Type: functional, cell-based, U-87MG ATCC
For `Cc1cn([C@H]2S[C@@H](CO)[C@H](O)[C@@H]2O)c(=O)[nH]c1=O`, the IC50 was 67.8 µM.
`Nc1nc(S)c2ncn([C@H]3S[C@@H](CO)[C@H](O)[C@@H]3O)c2n1` was tested, and the IC50 was 62.1 µM.
For `O=c1[nH]c(=O)n([C@H]2S[C@@H](CO)[C@H](O)[C@@H]2O)cc1F`, the IC50 was 41.5 µM.
With `Nc1nc(=O)n([C@H]2S[C@@H](CO)[C@H](O)[C@@H]2O)cc1F` the IC50 was 83.3 µM.

These compounds were tested on NB-4 (assay: Growth stimulating activity against NB4 leukemia cell line; growth stimulatory activity is observed.). Conditions: not given.
Type: functional, cell-based, Homo sapiens
`Nc1nc(=O)n([C@H]2S[C@@H](CO)[C@H](O)[C@@H]2O)cc1F` was tested, and the IC50 was “Growth-stimulatory activity”.

What follows are compounds tested on T47D (assay: Growth stimulating activity against T47D breast cancer cell line; growth stimulatory activity is observed.). Conditions: not given.
Type: functional, cell-based, Homo sapiens
For `Nc1nc(S)c2ncn([C@H]3S[C@@H](CO)[C@H](O)[C@@H]3O)c2n1`, the IC50 was “Growth-stimulatory activity”.
`Nc1nc(=O)n([C@H]2S[C@@H](CO)[C@H](O)[C@@H]2O)cc1F` was tested, and the IC50 was “Growth-stimulatory activity”.
